Laboratory results from patent publication US20190313644A1, “METHOD FOR FRUIT THINNING” (Adama Agan Ltd., priority 2015, published 2019).

Columns and labels:
[1] = test system: Golden Delicious variety of apples; test: Photosynthetic activity levels of the fruit bearing tree after the first application; type: in vivo
Protocol: The experiments were conducted on the Golden Delicious variety of apples in Germany and Italy. The first application of metamitron was applied to the fruit trees in May when the fruit was at fruiting stage BBCH69-BBCH72. The second application of metamitron was applied, if applicable, five days after the first application. […] Based on this and on the predicted meteorological data for the time of the second application, the second application should be applied at a high dose in order to effectively thin the fruit bearing tree. […] No over-thinning was observed.

[2] = test system: Golden Delicious variety of apples; test: Fruit thinning field trial, first and optional second application of metamitron; type: in vivo; settings: for Thinning Effect (%): vs untreated control
Protocol: A formulation of metamitron in the form of a soluble granule was diluted to the desired concentration with water. The following concentrations were prepared: • 1.1 Kg/ha metamitron (low dosage) • 1.65 Kg/ha metamitron (medium dosage) • 2.2 Kg/ha metamitron (high dosage) The experiments were conducted on the Golden Delicious variety of apples in Germany and Italy. The first application of metamitron was applied to the fruit trees in May when the fruit was at fruiting stage BBCH69-BBCH72. The second application of metamitron was applied, if applicable, five days after the first application. Local meteorological data was obtained from local weather stations. The meteorological data was inputted into the MaluSim Carbon Balance Model of Lakso (described at […].cornell.edu/apple_thin_help.html, the contents of which are hereby incorporated by reference) in order to obtain the level of carbohydrates available in the fruit tree. The thinning effect is calculated by comparing the treated fruit trees with the untreated control as follows: […]

[3] = Germany, 1st application 1.65 Kg/ha, 2nd application 0 Kg/ha
[4] = Germany, 1st application 1.65 Kg/ha, 2nd application 1.1 Kg/ha
[5] = Germany, 1st application 1.65 Kg/ha, 2nd application 2.2 Kg/ha
[6] = Germany, 1st application 2.2 Kg/ha, 2nd application 0 Kg/ha
[7] = Germany, 1st application 2.2 Kg/ha, 2nd application 1.1 Kg/ha
[8] = Germany, 1st application 2.2 Kg/ha, 2nd application 1.65 Kg/ha
[9] = Germany, 1st application 2.2 Kg/ha, 2nd application 2.2 Kg/ha
[10] = Italy, 1st application 1.65 Kg/ha, 2nd application 0 Kg/ha
[11] = Italy, 1st application 1.65 Kg/ha, 2nd application 1.1 Kg/ha
[12] = Italy, 1st application 1.65 Kg/ha, 2nd application 2.2 Kg/ha
[13] = Italy, 1st application 2.2 Kg/ha, 2nd application 0 Kg/ha
[14] = Italy, 1st application 2.2 Kg/ha, 2nd application 2.2 Kg/ha

For `Cc1nnc(-c2ccccc2)c(=O)n1N` [metamitron], which “Photosynthetic Activity levels” value ([1]; Germany, after 1st application 1.65 Kg/ha) is on record?
The value was “Low”.

And the “Photosynthetic Activity levels” value ([1]; Germany, after 1st application 2.2 Kg/ha)?
Its value is “Low”.

And the “Photosynthetic Activity levels” value ([1]; Italy, after 1st application 1.65 Kg/ha)?
The value was “Low”.

And the “Photosynthetic Activity levels” value ([1]; Italy, after 1st application 2.2 Kg/ha)?
The value was “Low”.

And the “Fruit Load (fruits/tcsa)” value [2, 3]?
The value was 11.20 fruits/tcsa.

What about the “Thinning Effect (%)” value [2, 3] of the same compound?
Its value is 33.2%.

And the “Fruit Load (fruits/tcsa)” value [2, 4]?
The value was 11.42 fruits/tcsa.

And the “Thinning Effect (%)” value [2, 4]?
The value was 31.8%.

What about the “Fruit Load (fruits/tcsa)” value [2, 5] of the same compound?
The value was 6.83 fruits/tcsa.

And the “Thinning Effect (%)” value [2, 5]?
Its value is 59.3%.

What about the “Fruit Load (fruits/tcsa)” value [2, 6] of the same compound?
The value was 11.44 fruits/tcsa.

And the “Thinning Effect (%)” value [2, 6]?
Its value is 31.8%.

And the “Fruit Load (fruits/tcsa)” value [2, 7]?
Its value is 11.40 fruits/tcsa.

And the “Thinning Effect (%)” value [2, 7]?
Its value is 32.0%.

And the “Fruit Load (fruits/tcsa)” value [2, 8]?
Its value is 11.98 fruits/tcsa.

And the “Thinning Effect (%)” value [2, 8]?
The value was 28.5%.

What about the “Fruit Load (fruits/tcsa)” value [2, 9] of the same compound?
The value was 8.07 fruits/tcsa.

And the “Thinning Effect (%)” value [2, 9]?
The value was 51.8%.

And the “Fruit Load (fruits/tcsa)” value [2, 10]?
The value was 12.33 fruits/tcsa.

And the “Thinning Effect (%)” value [2, 10]?
Its value is 31.27%.

What about the “Fruit Load (fruits/tcsa)” value [2, 11] of the same compound?
Its value is 12.30 fruits/tcsa.

What about the “Thinning Effect (%)” value [2, 11] of the same compound?
Its value is 31.39%.

What about the “Fruit Load (fruits/tcsa)” value [2, 12] of the same compound?
The value was 9.58 fruits/tcsa.

And the “Thinning Effect (%)” value [2, 12]?
Its value is 46.57%.

And the “Fruit Load (fruits/tcsa)” value [2, 13]?
The value was 12.67 fruits/tcsa.

And the “Thinning Effect (%)” value [2, 13]?
The value was 29.38%.

And the “Fruit Load (fruits/tcsa)” value [2, 14]?
Its value is 9.37 fruits/tcsa.

What about the “Thinning Effect (%)” value [2, 14] of the same compound?
Its value is 47.75%.
